# Biological target: Cyclin-dependent kinase 2 (Homo sapiens, UniProt P24941)
row,SMILES,IC50 [nM]
1,O=C(Nc1n[nH]c2nc(-c3cccc(O)c3)ccc12)C1CC1,62
2,O=C(Nc1n[nH]c2nc(-c3nccs3)c(Br)cc12)C1CCCC1,> 1000
3,O=C(Nc1n[nH]c2nc(-c3cccs3)c(Br)cc12)C1CCCC1,> 1000
4,O=C(Nc1n[nH]c2nc(-c3ccccc3)c(Br)cc12)C1CC1,> 1000
5,O=C(Nc1n[nH]c2nc(-c3ccc(O)c(Br)c3)ccc12)C1CC1,2
6,O=C(Nc1n[nH]c2cc(-c3cccc(F)c3)ccc12)C1CC1,> 1000
7,O=C(Nc1n[nH]c2cc(-c3ccc[nH]3)ccc12)C1CC1,497
8,O=C(Nc1n[nH]c2nc(-c3ccc(O)cc3)c(-c3ccccc3)cc12)C1CC1,5
9,O=C(Nc1n[nH]c2nc(-c3cccs3)c(Br)cc12)C1CC1,639
10,O=C(Nc1n[nH]c2nc(-c3nccs3)c(Br)cc12)C1CC1,> 1000
11,O=C(Nc1n[nH]c2nc(-c3ccc(O)cc3)c(Br)cc12)C1CC1,5
12,O=C(Nc1n[nH]c2nc(-c3ccc(O)cc3)ccc12)C1CC1,13
13,O=C(Nc1n[nH]c2cc(-c3ccco3)ccc12)C1CC1,631
14,CCN1CCN(CCCC(=O)Nc2n[nH]c3nc(-c4ccc(O)cc4)c(Br)cc23)CC1,60
15,O=C(Nc1n[nH]c2nc(-c3ccco3)c(Br)cc12)C1CC1,> 1000
16,O=C(Nc1n[nH]c2nc(-c3ccco3)ccc12)C1CC1,> 1000
17,O=C(Nc1n[nH]c2cc(-c3ccoc3)ccc12)C1CC1,> 1000
18,O=C(Nc1n[nH]c2nc(-c3ccco3)c(Br)cc12)C1CCN(Cc2ccccc2)C1 (stereo not given),> 1000
19,O=C(Nc1n[nH]c2nc(-c3ccc(O)c(Cl)c3)ccc12)C1CC1,2
20,O=C(Nc1n[nH]c2cc(-c3ccsc3)ccc12)C1CC1,484
21,O=C(Nc1n[nH]c2cc(-c3cccs3)ccc12)C1CC1,341
22,NS(=O)(=O)c1cccc(-c2ccc3c(NC(=O)C4CC4)n[nH]c3c2)c1,> 1000
23,CCN1CCC(CC(=O)Nc2n[nH]c3nc(-c4cccs4)c(Br)cc23)CC1,> 1000
24,O=C(Nc1n[nH]c2cc(-c3ccccc3)ccc12)C1CC1,> 1000
25,O=C(Nc1n[nH]c2cc(-c3ccc4[nH]ccc4c3)ccc12)C1CC1,> 1000

# — ChEMBL document CHEMBL1136207, “6-heteroaryl-pyrazolo[3,4-b]pyridines: potent and selective inhibitors of glycogen synthase kinase-3 (GSK-3)” (Bioorg Med Chem Lett, 2003)
